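Each compound was tested at five concentrations against cells in 96-well plates for 48 hours. TGI denotes the concentration required for complete inhibition of growth.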
What was measured:
Experiment in all cases: NCI tumour cell line growth inhibition, 48 h
ACHN renal = test system: ACHN renal
CAKI-1 renal = test system: CAKI-1 renal
EKVX NSCLC = test system: EKVX NSCLC
HL-60(TB) leukemia = test system: HL-60(TB) leukemia
HOP-92 NSCLC = test system: HOP-92 NSCLC
LOX IMVI melanoma = test system: LOX IMVI melanoma
MDA-MB-231 breast = test system: MDA-MB-231 breast
NCI-H23 lung = test system: NCI-H23 lung
OVCAR-4 ovarian = test system: OVCAR-4 ovarian
OVCAR-8 ovarian = test system: OVCAR-8 ovarian
RXF 393 renal = test system: RXF 393 renal
SK-OV-3 ovarian = test system: SK-OV-3 ovarian
SNB-75 CNS = test system: SNB-75 CNS
U251 CNS = test system: U251 CNS
UACC-62 melanoma = test system: UACC-62 melanoma

Structure (SMILES) | TGI (ACHN renal) [µM] | TGI (CAKI-1 renal) [µM] | TGI (EKVX NSCLC) [µM] | TGI (HL-60(TB) leukemia) [µM] | TGI (HOP-92 NSCLC) [µM] | TGI (LOX IMVI melanoma) [µM] | TGI (MDA-MB-231 breast) [µM] | TGI (NCI-H23 lung) [µM] | TGI (OVCAR-4 ovarian) [µM] | TGI (OVCAR-8 ovarian) [µM] | TGI (RXF 393 renal) [µM] | TGI (SK-OV-3 ovarian) [µM] | TGI (SNB-75 CNS) [µM] | TGI (U251 CNS) [µM] | TGI (UACC-62 melanoma) [µM]
O=C1Nc2n[nH]c(=S)n2NC12c1ccccc1-c1ccccc12 | > 100 | > 100 | > 100 | > 100 | > 100 | > 100 | > 100 | > 100 | 39.1 | > 100 | > 100 | > 100 | > 100 | > 100 | 68.1
C[C@@]12C[C@@H](c3ccccc3O1)N1CCCSC1=N2 | > 100 | > 100 | > 100 | > 100 | > 100 | > 100 | > 100 | > 100 | > 100 | > 100 | > 100 | > 100 | > 100 | > 100 | > 100
CCOC(=O)Cc1ccc(Nc2nc3cc(F)c(F)cc3nc2C(=O)OCC)cc1 | 33.5 | 42.9 | 56.4 | > 100 | 54.6 | > 100 | 9.08 | 66.5 | > 100 | > 100 | > 100 | > 100 | > 100 | > 100 | > 100
CC1=C(N2CC2)C(=O)C(C)=C(N2CC2)C1=O | 0.445 | 1.37 | 2.68 | 1.04 | 0.988 | 1.38 | > 100 | 0.19 | 2.02 | 2.3 | 0.329 | 2.9 | 1.57 | 0.994 | 0.466
COc1c(N2CCCCC2)c2c(=O)c3ccccc3oc2c2c3ccccc3n(C)c12 | > 100 | > 100 | > 100 | > 100 | > 100 | > 100 | > 100 | > 100 | > 100 | > 100 | > 100 | > 100 | > 100 | > 100 | > 100
O=C(Nc1ccccc1)c1cc2cc(CCl)ccc2oc1=O | 31.1 | > 100 | > 100 | > 100 | > 100 | > 100 | > 100 | > 100 | > 100 | > 100 | > 100 | > 100 | > 100 | > 100 | 32.8
Cc1ccc(C(CCO)CCO)nc1 | > 100 | > 100 | > 100 | > 100 | > 100 | > 100 | > 100 | > 100 | > 100 | > 100 | > 100 | > 100 | > 100 | > 100 | > 100
CC(=O)O[C@H]1C(=O)[C@@]2(C)[C@H]([C@H](OC(=O)c3ccccc3)[C@]3(O)C[C@H](OC(=O)[C@H](O)[C@@H](NC(=O)OC(C)(C)C)c4ccco4)C(C)=C1C3(C)C)[C@]1(OC(C)=O)CO[C@@H]1C[C@@H]2O | > 48.1 | > 50 | > 50 | 0.0241 | 43.5 | 22.3 | 14.7 | > 40.9 | > 50 | > 50 | 0.0338 | 7.38 | < 0.005 | > 16.1 | > 33.4
C/C1=C\CC[C@@]2(C)O[C@@H]2C[C@@H]2[C@H](C/C(C)=C/CC1)OC(=O)[C@]21CO1 | > 100 | > 100 | > 100 | > 100 | > 100 | 44.6 | > 100 | > 100 | > 100 | > 100 | > 100 | > 100 | > 100 | > 100 | > 100
Cc1nnc(N)nc1C/C=C/C(C)Sc1ccc(Cl)cc1 (stereo not given) | 29 | 33.9 | 23.3 | 10.1 | 68.8 | > 30.4 | > 41.9 | 36 | 48 | > 56.5 | 22.2 | 21.9 | 19.2 | > 42 | 17.8
COc1ccc(C(SCCO)(c2ccc(OC)cc2)c2ccc(OC)cc2)cc1 | 50.2 | > 100 | 36.5 | 87.7 | 28.8 | 27.1 | 46.6 | 45.2 | > 100 | 37.7 | 30.9 | 94.5 | 61.1 | 32.6 | 30.1
CC(=O)OC1CC2C(=O)CC1(C)C2(C)C (stereo not given) | > 100 | > 100 | > 100 | > 100 | > 100 | > 100 | > 100 | > 100 | > 100 | > 100 | > 100 | > 100 | > 100 | > 100 | > 100
Cn1c2ccccc2c(=NNc2ccc(S(=O)(=O)N=C(N)N)cc2)c2ccccc21 | 20.1 | 38.8 | 25 | 38.6 | 36.4 | 16.9 | 32.4 | 26.9 | 16.8 | 26.4 | 10.8 | 21.3 | 25.4 | 21.6 | 32

Reference: PubChem BioAssay (NCI)
